From patent publication US20090118332A1, “Therapeutic Agents - 551” (AstraZeneca AB, priority 2006, published 2009)

Biological target: T1, human Fatty Acid Synthase (Homo sapiens, UniProt P49327)
T1 construct: made in house
Test: Human FAS enzyme assay (decrease in NADPH fluorescence)
Assay type: biochemical
Conditions: for inhibition at 100 µM: % inhibition at a concentration of 100 μmolar
How it was run: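 In-house human FAS was preincubated with compound and NADPH for 15 min at room temperature in 0.1 M Tris pH 7.5 with EDTA, glutathione and BSA. Malonyl CoA and acetyl CoA (500 μM and 150 μM in the added mix) were then added for 60 min. IC50 came from time-zero-subtracted NADPH fluorescence (340/460 nm).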

T1 sequence (P49327 whole entry): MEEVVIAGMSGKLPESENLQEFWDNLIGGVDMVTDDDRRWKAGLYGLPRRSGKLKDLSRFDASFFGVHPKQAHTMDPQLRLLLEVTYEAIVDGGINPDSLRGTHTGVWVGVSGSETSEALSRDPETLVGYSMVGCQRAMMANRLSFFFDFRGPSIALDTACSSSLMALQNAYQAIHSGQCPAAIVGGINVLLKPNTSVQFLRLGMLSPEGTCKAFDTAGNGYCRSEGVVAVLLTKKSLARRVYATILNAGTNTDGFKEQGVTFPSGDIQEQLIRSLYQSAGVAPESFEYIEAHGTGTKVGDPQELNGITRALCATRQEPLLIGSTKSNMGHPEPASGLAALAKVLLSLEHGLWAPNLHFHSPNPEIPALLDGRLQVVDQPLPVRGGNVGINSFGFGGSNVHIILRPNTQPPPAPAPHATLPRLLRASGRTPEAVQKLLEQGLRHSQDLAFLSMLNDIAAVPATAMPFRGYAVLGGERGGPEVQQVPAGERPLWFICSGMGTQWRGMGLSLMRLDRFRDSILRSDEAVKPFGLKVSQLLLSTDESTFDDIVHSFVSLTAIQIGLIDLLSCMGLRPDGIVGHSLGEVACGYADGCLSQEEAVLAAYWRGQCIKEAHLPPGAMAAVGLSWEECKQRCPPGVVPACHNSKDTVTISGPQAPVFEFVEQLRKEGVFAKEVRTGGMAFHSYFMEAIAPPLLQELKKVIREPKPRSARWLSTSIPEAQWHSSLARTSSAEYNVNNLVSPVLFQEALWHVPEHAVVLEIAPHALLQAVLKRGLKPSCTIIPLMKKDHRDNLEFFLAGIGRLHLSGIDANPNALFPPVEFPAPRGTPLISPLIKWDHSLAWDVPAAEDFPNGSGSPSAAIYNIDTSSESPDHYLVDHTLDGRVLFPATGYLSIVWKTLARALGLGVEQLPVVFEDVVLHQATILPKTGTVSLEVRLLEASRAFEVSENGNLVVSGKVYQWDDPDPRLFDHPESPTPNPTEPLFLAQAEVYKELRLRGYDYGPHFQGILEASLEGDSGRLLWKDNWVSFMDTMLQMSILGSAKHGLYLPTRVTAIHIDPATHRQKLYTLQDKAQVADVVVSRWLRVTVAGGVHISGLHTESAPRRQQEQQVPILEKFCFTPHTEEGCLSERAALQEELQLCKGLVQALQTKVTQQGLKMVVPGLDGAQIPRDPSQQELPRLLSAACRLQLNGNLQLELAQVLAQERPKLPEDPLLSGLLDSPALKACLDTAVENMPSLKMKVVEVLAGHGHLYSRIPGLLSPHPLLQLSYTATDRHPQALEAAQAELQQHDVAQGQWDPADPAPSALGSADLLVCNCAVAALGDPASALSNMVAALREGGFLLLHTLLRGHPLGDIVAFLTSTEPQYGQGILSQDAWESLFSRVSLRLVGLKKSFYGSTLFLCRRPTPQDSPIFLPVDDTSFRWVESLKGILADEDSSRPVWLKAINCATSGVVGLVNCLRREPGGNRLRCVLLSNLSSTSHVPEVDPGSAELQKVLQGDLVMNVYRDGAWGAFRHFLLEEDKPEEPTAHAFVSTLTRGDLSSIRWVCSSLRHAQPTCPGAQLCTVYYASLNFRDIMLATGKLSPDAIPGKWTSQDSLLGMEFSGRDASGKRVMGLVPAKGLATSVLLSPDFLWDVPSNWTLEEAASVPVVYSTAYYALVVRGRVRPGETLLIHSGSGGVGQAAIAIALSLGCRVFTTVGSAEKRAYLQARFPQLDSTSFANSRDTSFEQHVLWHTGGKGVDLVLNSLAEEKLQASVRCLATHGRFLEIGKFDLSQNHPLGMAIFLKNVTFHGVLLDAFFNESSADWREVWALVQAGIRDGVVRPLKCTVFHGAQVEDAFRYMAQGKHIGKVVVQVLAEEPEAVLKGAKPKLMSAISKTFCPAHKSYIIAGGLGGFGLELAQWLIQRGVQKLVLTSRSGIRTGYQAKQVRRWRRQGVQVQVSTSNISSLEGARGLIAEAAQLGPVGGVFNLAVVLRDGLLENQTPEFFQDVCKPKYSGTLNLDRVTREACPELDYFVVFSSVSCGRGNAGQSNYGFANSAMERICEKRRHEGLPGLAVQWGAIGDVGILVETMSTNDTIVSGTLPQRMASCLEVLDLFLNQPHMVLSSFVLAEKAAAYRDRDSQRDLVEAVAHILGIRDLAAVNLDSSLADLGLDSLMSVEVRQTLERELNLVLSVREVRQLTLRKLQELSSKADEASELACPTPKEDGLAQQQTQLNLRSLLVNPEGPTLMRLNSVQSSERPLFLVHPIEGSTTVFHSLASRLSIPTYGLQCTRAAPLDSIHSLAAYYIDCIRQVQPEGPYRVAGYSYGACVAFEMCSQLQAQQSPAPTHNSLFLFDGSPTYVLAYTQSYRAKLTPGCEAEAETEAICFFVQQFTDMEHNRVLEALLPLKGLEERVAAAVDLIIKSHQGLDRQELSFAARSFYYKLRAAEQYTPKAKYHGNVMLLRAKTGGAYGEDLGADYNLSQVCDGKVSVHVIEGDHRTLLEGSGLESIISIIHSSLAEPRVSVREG

| inhibition at 100 µM | SMILES | IC50, inhibition of human Fatty Acid Synthase (FAS enzyme assay, IC50 from fitted sigmoid curves) |
| --- | --- | --- |
| 70.4% | COc1ccc(C(=O)N2CCC(c3ccc(C#N)cc3)CC2)cc1NC(=O)NCc1ccccc1 [Example 9, 3-benzyl-1-[5-[4-(4-cyanophenyl)piperidine-1-carbonyl]-2-methoxy-phenyl]urea] | – |
| 110% | Cc1ccc(C(=O)N2CCC(c3ccc(C#N)cc3)CC2)cc1NC(=O)NC(C)c1ccccn1 (centres unmarked) [Example 368, 1-[5-[4-(4-cyanophenyl)piperidine-1-carbonyl]-2-methylphenyl]-3-(1-pyridin-2-ylethyl)urea] | – |
| 90.3% | Cc1ccc(C(=O)N2CCC(c3ccc(C#N)cc3)CC2)cc1NC(=O)NCC#N [Example 167, 3-(cyanomethyl)-1-[5-[4-(4-cyanophenyl)piperidine-1-carbonyl]-2-methyl-phenyl]urea] | – |
| 90.1% | N#Cc1ccc(C2CCN(C(=O)c3cccc(NC(=O)NCc4ccccc4)c3)CC2)cc1 [Example 14, 1-benzyl-3-[3-[4-(4-cyanophenyl)piperidine-1-carbonyl]phenyl]urea] | – |
| 95.6% | CCCCNC(=O)Nc1cc(C(=O)N2CCC(c3ccc(C#N)cc3)CC2)ccc1C [Example 1, 1-butyl-3-[5-[4-(4-cyanophenyl)piperidine-1-carbonyl]-2-methyl-phenyl]urea] | – |
| 91.7% | Cc1ccc(C(=O)N2CCC(c3ccc(C#N)cc3)CC2)cc1NC(=O)NCCC(=O)O [Example 125, 3-[[5-[4-(4-cyanophenyl)piperidine-1-carbonyl]-2-methyl-phenyl]carbamoylamino]propanoic acid] | – |
| 79.7% | Cc1ccc(C(=O)N2CCC(c3ccc(C(=O)N(C)C)cc3)CC2)cc1NC(=O)NCc1ccccc1 [Example 123, 4-[1-[3-(benzylcarbamoylamino)-4-methyl-benzoyl]-4-piperidyl]-N,N-dimethyl-benzamide] | – |
| 91.8% | Cc1ccc(C(=O)N2CCC(c3ccc(C#N)cc3)CC2)cc1NC(=O)NCc1cccc(C#N)c1 [Example 108, 3-[(3-cyanophenyl)methyl]-1-[5-[4-(4-cyanophenyl)piperidine-1-carbonyl]-2-methyl-phenyl]urea] | – |
| 98.3% | Cc1ccc(C(=O)N2CCC(c3ccc(C#N)cc3)CC2)cc1NC(=O)NCCc1ccccc1 [Example 16, 1-[5-[4-(4-cyanophenyl)piperidine-1-carbonyl]-2-methyl-phenyl]-3-phenethyl-urea] | – |
| 95.1% | COCCNC(=O)Nc1cc(C(=O)N2CCC(c3ccc(C#N)cc3)CC2)ccc1C [Example 152, 1-[5-[4-(4-cyanophenyl)piperidine-1-carbonyl]-2-methyl-phenyl]-3-(2-methoxyethyl)urea] | – |

More lines, now with the values behind:

| SMILES | inhibition at 100 µM | IC50, inhibition of human Fatty Acid Synthase (FAS enzyme assay, IC50 from fitted sigmoid curves) |
| --- | --- | --- |
| COC(=O)CNC(=O)CNC(=O)Nc1cc(C(=O)N2CCC(c3ccc(C#N)cc3)CC2)ccc1C [Example 237, Methyl 2-[[2-[[5-[4-(4-cyanophenyl)piperidine-1-carbonyl]-2-methyl-phenyl]carbamoylamino]acetyl]amino]acetate] | 90.9% | – |
| Cc1ccc(C(=O)N2CCC(c3ccc(C#N)cc3)CC2)cc1NC(=O)NC1CCCN(S(C)(=O)=O)C1 (centres unmarked) [Example 296, 1-[5-[4-(4-cyanophenyl)piperidine-1-carbonyl]-2-methyl-phenyl]-3-(1-methylsulfonyl-3-piperidyl)urea] | 103% | – |
| CC(=O)NCCNC(=O)Nc1cc(C(=O)N2CCC(c3ccc(C(F)(F)F)cc3)CC2)ccc1C [Example 326, N-[2-[[2-methyl-5-[4-[4-(trifluoromethyl)phenyl]piperidine-1-carbonyl]phenyl]carbamoylamino]ethyl]acetamide] | 91.8% | – |
| CC(C)NC(=O)Nc1ccc(F)c(C(=O)N2CCC(c3ccc(C#N)cc3)CC2)c1 [Example 377, 3-[3-[4-(4-cyanophenyl)piperidine-1-carbonyl]-4-fluorophenyl]-1-propan-2-ylurea] | 71.1% | – |
| Cc1ccc(C(=O)N2CCC(c3ccc(C#N)cc3)CC2)cc1NC(=O)NCC(C)(C)NS(C)(=O)=O [Example 202, 1-[5-[4-(4-cyanophenyl)piperidine-1-carbonyl]-2-methyl-phenyl]-3-(2-methanesulfonamido-2-methyl-propyl)urea] | 97.3% | – |
| Cc1cc(C)c(C(=O)N2CCC(c3ccc(C#N)cc3)CC2)cc1NC(=O)NCCCS(C)(=O)=O [Example 294, 1-[5-[4-(4-cyanophenyl)piperidine-1-carbonyl]-2,4-dimethyl-phenyl]-3-(3-methylsulfonylpropyl)urea] | 92.2% | – |
| Cc1ccc(C(=O)N2CCC(c3ccc(C#N)cc3)CC2)cc1NC(=O)NC1CNC1 [Example 300, 3-(azetidin-3-yl)-1-[5-[4-(4-cyanophenyl)piperidine-1-carbonyl]-2-methyl-phenyl]urea] | 84.3% | – |
| Cc1ccc(NC(=O)N2CCCC2)cc1C(=O)N1CCC(c2ccc(C#N)cc2)CC1 [Example 29, N-[3-[4-(4-cyanophenyl)piperidine-1-carbonyl]-4-methyl-phenyl]pyrrolidine-1-carboxamide] | 79.6% | – |
| Cc1ccc(C(=O)N2CCC(c3ccccc3)CC2)cc1NC(=O)NC(C)C [Example 391, 1-[2-methyl-5-(4-phenylpiperidine-1-carbonyl)phenyl]-3-propan-2-ylurea] | 71% | – |
| CCS(=O)(=O)N1CCCC(NC(=O)Nc2cc(C(=O)N3CCC(c4ccc(C#N)cc4)CC3)ccc2C)C1 (centres unmarked) [Example 297, 3-[5-[4-(4-cyanophenyl)piperidine-1-carbonyl]-2-methyl-phenyl]-1-(1-ethylsulfonyl-3-piperidyl)urea] | 97.9% | – |
| Cc1ccc(C(=O)N2CCC(c3ccc(C(F)(F)F)cc3)CC2)cc1NC(=O)NC1CCCN(C(=O)OC(C)(C)C)C1 (centres unmarked) [Example 333, tert-butyl 3-[[2-methyl-5-[4-[4-(trifluoromethyl)phenyl]piperidine-1-carbonyl]phenyl]carbamoylamino]piperidine-1-carboxylate] | 90.9% | – |
| CC(C)NC(=O)Nc1cc(C(=O)N2CCC(c3ccc(C#N)cc3)CC2)ccc1OC(F)(F)F [Example 4, 3-[5-[4-(4-cyanophenyl)piperidine-1-carbonyl]-2-(trifluoromethoxy)phenyl]-1-propan-2-yl-urea] | 86.1% | – |
| CC(=O)OCC(=O)NCCNC(=O)Nc1cc(C(=O)N2CCC(c3ccc(C#N)cc3)CC2)ccc1C [Example 113, 2-[[5-[4-(4-cyanophenyl)piperidine-1-carbonyl]-2-methyl-phenyl]carbamoylamino]ethylcarbamoylmethyl acetate] | 92.7% | – |
| Cc1ccc(C(=O)N2CCC(c3ccc(C#N)cc3)CC2)cc1NC(=O)N(C)C(C)(C)C#N [3-[5-[4-(4-cyanophenyl)piperidine-1-carbonyl]-2-methylphenyl]-1-(2-cyanopropan-2-yl)-1-methylurea] | – | do not have IC50s in the range of about 0.001 μM to about 30 μM |
| Cc1ccc(C(=O)N2CCC(c3ccc(C#N)cc3)CC2)cc1NC(=O)NCCC(=O)NC(C)C [Example 129, 3-[[5-[4-(4-cyanophenyl)piperidine-1-carbonyl]-2-methyl-phenyl]carbamoylamino]-N-propan-2-yl-propanamide] | 99.1% | – |
| CCc1ccc(C(=O)N2CCC(c3ccc(C#N)cc3)CC2)cc1NC(=O)NCC1COCCO1 (racemic) [Example 259, (RS)-1-[5-[4-(4-cyanophenyl)piperidine-1-carbonyl]-2-ethyl-phenyl]-3-(1,4-dioxan-2-ylmethyl)urea] | 102% | – |
| CSc1ccc(NC(=O)NC(C)C)cc1C(=O)N1CCC(c2ccc(C#N)cc2)CC1 [Example 405, 3-[3-[4-(4-cyanophenyl)piperidine-1-carbonyl]-4-methylsulfanylphenyl]-1-propan-2-ylurea] | 66.8% | – |
| Cc1ccc(C(=O)N2CCC(c3ccc(C#N)cc3)CC2)cc1NC(=O)N(C)CCN(C)C [Example 394, 3-[5-[4-(4-cyanophenyl)piperidine-1-carbonyl]-2-methylphenyl]-1-(2-dimethylaminoethyl)-1-methylurea] | 68.7% | – |
| Cc1ccc(C(=O)N2CCC(c3ccc(C#N)cc3)CC2)cc1NC(=O)NCC1COCCO1 (centres unmarked) [Example 160, 1-[5-[4-(4-cyanophenyl)piperidine-1-carbonyl]-2-methyl-phenyl]-3-(1,4-dioxan-2-ylmethyl)urea] | 94.9% | – |
